Results: patent publication US4769382A, “Preparation for preventing and treatment of skin radiation burn lesions” (priority 1986, dated 1988)

Key:
Format in all cases: in vivo, random-bred albino rats
[1] = tested on: skin of the auricle (rat); assay: Local radioprotective effect on skin of rat auricle upon β-irradiation (60 Gy); conditions: β-radiation; for Duration of response, dry desquamation / Duration of response, moist desquamation / Duration of response, severe erythema / Duration of response, weak erythema: Eeff 0.76 MeV, applied 20 minutes before irradiation, X ± m
Method: The effect of β-radiation was studied on the skin of floors of the auricle by way of using a flexible applicator containing a source of a soft beta-radiation of ^204 T1. The maximum energy (E) in tissues is […]. The dose rate of the employed sources was 7.2 and 12 Gy/h. […] The extent of the skin radioprotective effect was assessed by a number of clinical dermatological tests by recording visual observations over the progress of radiation dermatitis. The tests were effected by the blank method at strictly predetermined hours of the day by a team of specialists. The form of dermatitis in each irradiated skin locus (moist or dry desquamation, intense and weak erythema) was recorded daily by means of special codes over the entire observation period. The number of the same codes for every irradiated skin locus (frequencies of features) were summed up and a group mean value was calculated. […] The thus-obtained values were statistically processed and evaluated by means of the Student criterion. Therefore, the severity of radiodermatitis was quantified by means of the following tests: (a) duration of periods of light and severe erythema; (b) duration of periods of moist and dry desquamation.

skin of paws (rat) = assay: Radioprotective effect on skin of rat paws upon X-ray irradiation (20 and 30 Gy); conditions: 20 Gy
skin (rat) = assay: Comparative evaluation of radioprotective effect with known preparations, local X-ray irradiation 30 Gy
Source text: For a comparative evaluation the data obtained in a similar experiment with a number of known preparations (castamine, ionol, dimethylsulphoxide), as well as with eugenol (3-methoxy-4-hydroxyallylbenzene) and castor oil were used.
Ionol (4-methyl-2,6-ditretbutylphenol) is employed as control as an analog-antioxidant featuring a radioprotective activity.

back skin (rat) = assay: Antiburning effect on thermal burn (III degree) of the back skin
Method: Since the leading role in the pathogenesis of thermal death of cells is played by processes of injury of cellular membranes, the preparation according to the present invention has been tested for feasibility of its use as an antiburning preparation. […] The contact plate of the electric heater had the temperature of 200° C., the exposure time--10 seconds. […] As judged by the clinico-histological assessment, the severity of the thus-produced injury corresponded to a III degree burn. The course of treatment of the animals was started directly after effecting an experimental burn and continued till a complete healing of the wound surface. […] The ointments were prepared on lanolin or vaseline base with different content of the active principle. […] Vaseline and lanolin were used as control.

[2] = Eeff 8 keV, groups 5 (dimethylsulphoxide) and 6 (5% emulsion on vaseline), X ± m

CCOC(=O)C1=C(C)NC(C)=C(C(=O)OCC)C1 [Compound of the invention, 2,6-dimethyl-3,5-diethoxycarbonyl-1,4-dihydropyridine]
Diminution of response, dry desquamation [1]: 86 % of the control
Diminution of response, moist desquamation [1]: 100 % of the control
Diminution of response, severe erythema [1]: 86 % of the control
Duration of response, dry desquamation [1]: 0.3 ± 0.2 days
Duration of response, moist desquamation [1]: 0.0 ± 0.0 days
Duration of response, severe erythema [1]: 0.3 ± 0.3 days
Duration of response, weak erythema [1]: 1.7 ± 0.5 days

C[S+](C)[O-] [Dimethylsulphoxide, dimethylsulphoxide]
Diminution of response, moist desquamation [1]: 100 % of the control
Duration of response, dry desquamation [1]: 1.0 ± 1.2 days
Duration of response, moist desquamation [1]: 0.0 ± 0.0 days
Duration of response, severe erythema [1]: 1.3 ± 1.7 days
Duration of response, weak erythema [1]: 1.7 ± 1.7 days
Diminution of response, dry desquamation (skin of paws (rat)): 50 % of the control
Duration of response, dry desquamation (skin of paws (rat); [2]): 2.8 ± 0.6 days
Duration of response, moist desquamation (skin of paws (rat); [2]): 0.1 ± 0.1 days
Duration of response, severe erythema (skin of paws (rat); [2]): 0.4 ± 0.3 days
Duration of response, weak erythema (skin of paws (rat); [2]): 1.6 ± 0.3 days
Reduction of duration of radiation response stages, moist desquamation (skin (rat)): 30.0%
Total weighed evaluation (skin (rat)): 22.5%

C=CCc1ccc(O)c(OC)c1 [Eugenol, 3-methoxy-4-hydroxyallylbenzene]
Reduction of duration of radiation response stages, moist desquamation (skin (rat)): 36.0%
Total weighed evaluation (skin (rat)): 27.5%

Cc1cc(C(C)(C)C)c(O)c(C(C)(C)C)c1 [Ionol, 4-methyl-2,6-ditertiarybutylphenol]
Reduction of duration of radiation response stages, erythema (skin (rat)): 28.0%
Reduction of duration of radiation response stages, moist desquamation (skin (rat)): 43.0%
Total weighed evaluation (skin (rat)): 37.85%

CC(C)(CO)C(O)C(=O)NCCCO (stereo not shown) [Panthenol]
Healing period, female (back skin (rat); female rats, control I (vaseline) 36.8 ± 6.8, control 2 (lanolin) 36.5 ± 6.5): 36.0 ± 7.0 days
Stimulant effect, female (back skin (rat); female rats, relative to control I (vaseline)): +2.2%
Healing period, male (back skin (rat); male rats, control I (vaseline) 32.8 ± 4.0, control 2 (lanolin) 33.1 ± 3.5): 29.7 ± 4.3 days
Stimulant effect, male (back skin (rat); male rats, relative to control 2 (lanolin)): +10,3%
